Values of other authors as cited in US20220372042A1, “CONDENSED HETEROCYCLES AS BCL-2 INHIBITORS” (Newave Pharmaceutical Inc., priority 2019, published 2022).
Each block holds one molecule with its values, some of them ahead of it.

Experiments:
established tumors = conditions: mouse, in vivo
[1] = in vivo
Bcl-w = biological target: T1, Bcl-w (Homo sapiens, UniProt Q92843)
T1 sequence (Q92843 1-193): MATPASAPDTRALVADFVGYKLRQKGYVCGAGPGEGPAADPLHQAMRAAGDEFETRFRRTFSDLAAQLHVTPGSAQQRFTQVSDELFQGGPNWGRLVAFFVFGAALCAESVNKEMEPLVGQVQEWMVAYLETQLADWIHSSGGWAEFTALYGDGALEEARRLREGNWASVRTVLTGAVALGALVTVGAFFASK

[2] = tested on: xenograft models of small-cell lung cancer and acute lymphoblastic leukemia; conditions: single agent
circulating platelets = conditions: patients, clinical trial
SCLC H146 cell line = conditions: read-out: IC50 against SCLC H146 cell line
H345 xenograft = conditions: 100 mg/kg/day, H345 xenograft model
RS4; 11 xenografts = conditions: single dose of 100 mg/kg
CLL = conditions: average; read-out: average EC50 apoptosis in CLL
[3] = tested on: DoHH2, Granta-519 xenografts; conditions: single agent or in combination with Bendamustine and other agents
[4] = tested on: CLL who have 17p deletion; conditions: CLL with 17p deletion

aqueous solubility: low aqueous solubility
oral bioavailability [1]: not orally bioavailable
SMILES: CN(C)CC[C@H](CSc1ccccc1)Nc1ccc(S(=O)(=O)NC(=O)c2ccc(N3CCN(Cc4ccccc4-c4ccc(Cl)cc4)CC3)cc2)cc1[N+](=O)[O-] [ABT-737]
efficacy in animal models (established tumors): improves survival, causes regression of established tumors, and produces cures in a high percentage of the mice

Ki (Bcl-w): ≤ 1 nM
number of circulating platelets (circulating platelets): rapid, concentration-dependent decrease
IC50 (SCLC H146 cell line): 110 nM
SMILES: CC1(C)CCC(c2ccc(Cl)cc2)=C(CN2CCN(c3ccc(C(=O)NS(=O)(=O)c4ccc(N[C@H](CCN5CCOCC5)CSc5ccccc5)c(S(=O)(=O)C(F)(F)F)c4)cc3)CC2)C1 [ABT-263]
tumor response after oral administration alone [2]: complete tumor regressions
TGI (H345 xenograft): 80%
treated tumors indicating at least a 50% reduction in tumor volume (H345 xenograft): 20%

EC50 (RS4; 11 cells): 8 nM
EC50 (CLL): 3 nM
SMILES: CC1(C)CCC(CN2CCN(c3ccc(C(=O)NS(=O)(=O)c4ccc(NCC5CCOCC5)c([N+](=O)[O-])c4)c(Oc4cnc5[nH]ccc5c4)c3)CC2)=C(c2ccc(Cl)cc2)C1 [ABT-199]
maximal tumor growth inhibition (RS4; 11 xenografts): 95%
tumor growth delay (RS4; 11 xenografts): 152%
xenograft growth [3]: inhibits xenograft growth
clinical efficacy [4]: highly efficacious
